Laboratory results reported in US20250368647A1, “NITROGEN CONTAINING CONDENSED 2,3-DIHYDROQUINAZOLINONE COMPOUNDS AS NAV1.8 INHIBITORS” (GLAXOSMITHKLINE INTELLECTUAL PROPERTY DEVELOPMENT LIMITED, priority 2022, published 2025).
Counter-ions that a name gives are not always drawn.

The molecules below were run against human Nav1.8 (Homo sapiens (Human), UniProt Q9Y5Y9) (assay: QPatch 48 HTX voltage-clamp electrophysiology, half inactivation state (V1/2) protocol, HEK293-Nav1.8 cells). Settings: HEK293 cells expressing human Nav1.8, human Navβ1 and human TREK1, P2 current.
Format: cell-based
In short: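 HEK293 cells co-expressing Navβ1 and TREK1 were voltage-clamped from −100 mV: a 20 ms step to 0 mV, 8 s inactivation at −46 mV, 20 ms at −100 mV, then a 20 ms P2 test step to 0 mV, repeated every 15 s. P2 current was normalized to vehicle and full block, corrected for run-down, and Hill-fitted (4–6 concentrations) for IC50.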

human Nav1.8, sequence (Q9Y5Y9 whole entry): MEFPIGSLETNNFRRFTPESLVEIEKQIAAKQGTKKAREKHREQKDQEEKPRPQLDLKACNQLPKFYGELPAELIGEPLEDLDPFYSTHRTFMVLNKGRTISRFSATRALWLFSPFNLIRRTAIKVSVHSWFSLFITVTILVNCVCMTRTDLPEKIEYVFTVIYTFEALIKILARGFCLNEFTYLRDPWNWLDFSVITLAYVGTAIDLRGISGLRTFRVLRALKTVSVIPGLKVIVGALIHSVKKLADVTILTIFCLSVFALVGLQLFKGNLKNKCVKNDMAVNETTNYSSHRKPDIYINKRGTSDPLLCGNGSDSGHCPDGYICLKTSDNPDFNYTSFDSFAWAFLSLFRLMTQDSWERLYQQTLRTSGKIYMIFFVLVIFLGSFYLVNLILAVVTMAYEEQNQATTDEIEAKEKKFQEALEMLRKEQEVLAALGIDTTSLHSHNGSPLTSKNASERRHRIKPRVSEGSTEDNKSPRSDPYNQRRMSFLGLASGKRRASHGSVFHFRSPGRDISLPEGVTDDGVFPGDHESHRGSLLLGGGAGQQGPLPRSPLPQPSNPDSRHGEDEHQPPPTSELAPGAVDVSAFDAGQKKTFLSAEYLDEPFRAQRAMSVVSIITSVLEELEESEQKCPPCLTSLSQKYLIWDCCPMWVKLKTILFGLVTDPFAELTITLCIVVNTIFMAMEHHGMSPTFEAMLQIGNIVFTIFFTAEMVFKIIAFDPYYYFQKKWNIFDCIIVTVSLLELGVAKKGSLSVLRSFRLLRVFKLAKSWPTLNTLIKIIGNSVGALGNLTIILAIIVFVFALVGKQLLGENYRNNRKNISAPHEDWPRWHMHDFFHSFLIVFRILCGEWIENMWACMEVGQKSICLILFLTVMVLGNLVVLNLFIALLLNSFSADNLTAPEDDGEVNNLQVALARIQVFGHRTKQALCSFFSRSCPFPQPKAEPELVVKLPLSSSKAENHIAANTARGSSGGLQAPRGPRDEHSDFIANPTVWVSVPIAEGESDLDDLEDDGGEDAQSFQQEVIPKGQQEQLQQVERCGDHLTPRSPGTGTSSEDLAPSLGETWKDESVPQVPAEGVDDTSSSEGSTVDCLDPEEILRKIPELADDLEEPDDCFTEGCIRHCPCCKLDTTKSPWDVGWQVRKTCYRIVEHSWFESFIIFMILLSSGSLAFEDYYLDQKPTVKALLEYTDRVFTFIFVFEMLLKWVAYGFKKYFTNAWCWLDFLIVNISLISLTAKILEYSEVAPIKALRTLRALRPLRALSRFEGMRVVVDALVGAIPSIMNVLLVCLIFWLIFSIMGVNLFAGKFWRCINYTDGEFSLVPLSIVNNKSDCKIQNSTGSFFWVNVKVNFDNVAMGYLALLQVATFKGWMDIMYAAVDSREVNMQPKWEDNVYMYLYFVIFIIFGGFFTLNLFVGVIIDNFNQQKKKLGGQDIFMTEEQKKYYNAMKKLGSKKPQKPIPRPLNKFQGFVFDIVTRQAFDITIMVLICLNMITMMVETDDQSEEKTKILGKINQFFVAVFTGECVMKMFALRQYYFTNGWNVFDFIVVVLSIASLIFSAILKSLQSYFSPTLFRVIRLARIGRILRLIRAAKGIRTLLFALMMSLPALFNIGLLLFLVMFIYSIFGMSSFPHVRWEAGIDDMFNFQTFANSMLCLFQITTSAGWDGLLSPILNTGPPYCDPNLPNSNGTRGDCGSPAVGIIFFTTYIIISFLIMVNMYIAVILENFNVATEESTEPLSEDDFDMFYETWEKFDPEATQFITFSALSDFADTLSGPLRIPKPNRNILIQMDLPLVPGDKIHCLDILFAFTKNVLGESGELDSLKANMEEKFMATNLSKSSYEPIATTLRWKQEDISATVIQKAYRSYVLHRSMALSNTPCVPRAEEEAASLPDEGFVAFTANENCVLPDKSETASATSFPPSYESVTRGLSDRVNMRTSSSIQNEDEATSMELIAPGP
human Nav1.8, sequence (Q07699 19-218 partner): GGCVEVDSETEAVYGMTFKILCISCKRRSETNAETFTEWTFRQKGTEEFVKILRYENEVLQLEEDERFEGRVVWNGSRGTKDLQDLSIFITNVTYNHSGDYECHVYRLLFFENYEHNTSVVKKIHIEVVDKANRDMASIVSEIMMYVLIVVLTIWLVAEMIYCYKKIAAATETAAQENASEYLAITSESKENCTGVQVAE

SMILES | Nav1.8, pIC50
Cl.N#Cc1cc2c(cc1F)C(=O)N1CN2c2ccc(OC(F)(F)F)c(F)c2CNCCc2[nH]c(=O)ccc21 [Example 89, 2,9-Difluoro-15,19-dioxo-8-(trifluoromethoxy)-10,11,12,13,14,15-hexahydro-19H-5,18-methanodibenzo[c,f]pyrido[3,2-j][1,5,9]triazacyclotridecine-3-carbonitrile hydrochloride] | 8.1
O=C1c2cc(C(F)(F)F)c(F)cc2N2CN1c1ccc(=O)[nH]c1NCCCc1cc(F)ccc12 [Example 90, 3,8-Difluoro-2-(trifluoromethyl)-10,11,12,13-tetrahydro-19H-5,18-methanodibenzo[f,i]-pyrido[2,3-b][1,4,8]triazacyclotridecine-15,19(14H)-dione] | 7.7
O=C1c2cc(F)c(F)cc2N2CN1c1ccc(=O)[nH]c1NCCCc1cc(F)ccc12 [Example 91, 2,3,8-Trifluoro-10,11,12,13-tetrahydro-19H-5,18-methanodibenzo[f,i]pyrido[2,3-b]-[1,4,8]triazacyclotridecine-15,19(14H)-dione] | 7.9
O=C1c2cc(F)c(C(F)(F)F)cc2N2CN1c1ccc(=O)[nH]c1NCCCc1c2ccc(F)c1F [Example 92, 2,8,9-Trifluoro-3-(trifluoromethyl)-10,11,12,13-tetrahydro-19H-5,18-methano-dibenzo[f,i]pyrido[2,3-b][1,4,8]triazacyclotridecine-15,19(14H)-dione, methanesulfonic acid salt] | 8.4
O=C1c2cc(F)c(Cl)cc2N2CN1c1ccc(=O)[nH]c1NCCCc1cc(F)ccc12 [Example 93, 3-Chloro-2,8-difluoro-10,11,12,13-tetrahydro-19H-5,18-methanodibenzo[f,i]pyrido[2,3-b]-[1,4,8]triazacyclotridecine-15,19(14H)-dione] | 8.1
O=C1c2cc(F)c(Cl)cc2N2CN1c1ccc(=O)[nH]c1NCCCc1c2ccc(F)c1F [Example 94, 3-Chloro-2,8,9-trifluoro-10,11,12,13-tetrahydro-19H-5,18-methanodibenzo[f,i]pyrido[2,3-b][1,4,8]triazacyclotridecine-15,19(14H)-dione] | 8.1
N#Cc1cc2c(cc1F)C(=O)N1CN2c2ccc(F)cc2CCCNc2[nH]c(=O)ccc21 [Example 95, 2,8-Difluoro-15,19-dioxo-10,11,12,13,14,15-hexahydro-19H-5,18-methanodibenzo[f,i]pyrido-[2,3-b][1,4,8]triazacyclotridecine-3-carbonitrile] | 7.5
O=C1c2cc(Cl)c(F)cc2N2CN1c1ccc(=O)[nH]c1NCCCc1cc(F)ccc12 [Example 96, 2-Chloro-3,8-difluoro-10,11,12,13-tetrahydro-19H-5,18-methanodibenzo[f,i]pyrido[2,3-b]-[1,4,8]triazacyclotridecine-15,19(14H)-dione] | 7.5
O=C1c2c(ccc(C(F)(F)F)c2F)N2CN1c1ccc(=O)[nH]c1NCCCc1c2ccc(F)c1F [Example 97, 1,8,9-Trifluoro-2-(trifluoromethyl)-10,11,12,13-tetrahydro-19H-5,18-methanodibenzo[f,i]pyrido-[2,3-b][1,4,8]triazacyclotridecine-15,19(14H)-dione] | 7.6
O=C1c2cc(F)c(F)cc2N2CN1c1ccc(=O)[nH]c1NCCCc1c2ccc(F)c1F [Example 98, 2,3,8,9-Tetrafluoro-10,11,12,13-tetrahydro-19H-5,18-methanodibenzo[f,i]pyrido[2,3-b]-[1,4,8]triazacyclotridecine-15,19(14H)-dione, formic acid salt] | 7.6
N#Cc1cc2c(cc1F)C(=O)N1CN2c2ccc(F)c(F)c2CCCNc2[nH]c(=O)ccc21 [Example 99, 2,8,9-Trifluoro-15,19-dioxo-10,11,12,13,14,15-hexahydro-19H-5,18-methano-dibenzo [f,i]pyrido[2,3-b][1,4,8]triazacyclotridecine-3-carbonitrile] | 7.7
